# According to patent US5837479A, “Screening assays for inhibitors of mammalian prostaglandin H synthase-2” (priority 1995, dated 1998):
# Where two headings read alike, the source gives them in different places.
# Tests used:
# [1] = system: familial polyposis (colon polyps); settings: patients with familial polyposis; cited from earlier work
# [2] = system: colorectal carcinoma; settings: several clinical trials; cited from earlier work
# [3] = system: human PGHS-2 (versus human PGHS-1); assay: NSAID inhibition of human PGHS-2 activity in stably transformed COS cells (4B4), compared with human PGHS-1 cells (H17A5); assay type: cell-based; settings: 30 min preincubation, 15 min arachidonic acid; FIGS. 8A-8D and 9A-9D
# Description: PGHS-1 and PGHS-2 cell lines (including 4B4 and H17A5) were exposed to various concentrations of NSAID for 30 min in serum-free DMEM. […] Controls consisted of no drug treatment and cells treated with the maximal concentrations of drug vehicles (1% methanol or ethanol). […] Cyclooxygenase activity was determined as described herein above.
# [4] = system: preterm labor; settings: in vivo; cited from earlier work
# [5] = system: 2.8-kb PGHS mRNA (PGHS-1), human monocytes; assay type: cell-based
# Description: (§1) FIGS. 3A-3B are a photographic depiction of autoradiographies obtained by Northern blotting monitoring the expression of the genes encoding griPGHS and the constitutive PGHS-1, as expressed in human monocytes, in response to interleukin-1 treatment, a known mediator of inflammation. Adherent human monocytes isolated from healthy donors were suspended in medium without serum at 1×10^6 cells/ml. One ml aliquots in 5 ml polypropylene tubes were incubated with loosened caps in 5% CO2 at 37° C. with occasional shaking. FIGS. 3A-3B are more fully described as follows:
# (§2) Five μg was subjected to Northern blot analysis with the indicated probes.
# (§3) Cycloheximide (25 μM) was added to one set of incubations 15 min prior to he addition of cytokine or hormone.
# (§4) Poly-A enriched RNAs (2.5 μg) from C127 cells were fractionated by formaldehyde-agarose gel electrophoresis and transferred to a membrane (Duralon, Stratagene). Hybridization was carried out as previously described by O'Banion et al., 1991, J. Virol., 65:3481-3488, using the 5' 1.2 kb EcoR1 fragment of the 4.1 kb cDNA labeled with ^32 P by random priming as disclosed by Feinberg et al., 1983, Anal. Biochem., 132:6-13. The membrane was later rehybridized with a similarly labeled portion (1.6 kb 5' end) of the 2.8 kb ovine PGHS cDNA (Oxford Biomedical Research, Inc.), and an end-labeled 40-mer complimentary to β-tubulin (Oncor). RNA molecular weight markers (Life Technologies) were visualized by ethidium bromide staining. A similar analysis was performed on total RNA (5 µg/lane) isolated from human monocytes by the guanidinium-acid-phenolextraction method of Chomczynski et al., 1987, Anal. Biochem., 162:156-159.
# (§5) Adherent human monocytes isolated from healthy donors as described by Roberts et al., 1978, J. Immunol, 121:1052-1058, were suspended in M199 medium without serum at 1×10^6 cells/ml. One ml aliquots in 5 ml polypropylene tubes were incubated with loosened caps in 5% CO2 at 37° C. with occasional shaking. […] Five μg RNA was subjected to Northern blot analysis as described by O'Banion et al., 1991, J. Biol. Chem., 34:23261-23267 with the indicated probes labeled by random priming (kit from Boehringer-Mannheim) to a specific activity >1×10^9 cpm/μg. […] Cycloheximide (25 μM; Sigma) was added to one set of incubations 15 min prior to the addition of cytokine or hormone.
# [6] = system: 2.8-kb mRNA encoding PGHS-1; assay: level of 2.8-kb PGHS-1 mRNA in C127 mouse fibroblasts; assay type: cell-based; settings: C127 cells
# [7] = system: COS cells; assay: toxicity to COS cells; assay type: cell-based, monkey; settings: 800 μg/ml Geneticin (active component 657 μg/ml)
# Description: Sixty-mm plates of 50% confluent COS-A2 (monkey-kidney) cells, which contain little or no cyclooxygenase activity were transfected with 1-2.5 μg of purified pRC/CMV;hPGHS-2 plasmid, pRC/CMV;hPGHS-1 plasmid or the PRC/CMV vector alone by a calcium phosphate precipitation method (Chen et al., 1987, Mol. Cell. Biol., 7:2745-2752. Plates were incubated at 35° C., 3% CO2 for 24 hr in normal media (Dulbecco's modified Eagle Media (DMEM)+10% fetal bovine serum). After two rinses with warm DMEM, plates were transferred to 37° C., 5% CO2 for an additional 24 hr. Selection was then started with normal media containing 800 μg/ml of Geneticin (active component G418, 657 μg/ml, Life Technologies), a concentration which is toxic for COS cells. […] Twelve to twenty-four colonies from each transfection were isolated using cloning cylinders. The majority of these survived continued G418 selection during clonal cell-line expansion.
# [8] = system: PGHS-2 expression, astrocytes; settings: cultured murine and rat astrocytes; cited from earlier work
# [9] = system: C127 mouse fibroblasts (protein synthesis); assay: inhibition of protein synthesis in C127 mouse fibroblasts; assay type: cell-based; settings: C127, 0.25 h, within 15 min
# Source text: C127 mouse fibroblasts were obtained from Peter Howley (NIH) and propagated in high glucose Dulbecco's modified Eagle's medium supplemented with 10% fetal bovine serum (HyClone Laboratories) without antibiotics. See, Lowy et al., 1978, J. Virol., 26:291-298. Cultures were monitored for mycoplasma contamination by Hoechst 33258 staining in accord with the procedure of Chen, 1977, Exp. Cell Res., 104:255-262.
# Exponentially growing, subconfluent (60-80%) cell monolayers (35-mm plates) were labeled in Dulbecco's modified Eagle's medium without methionine (Life Technologies) plus 200 μCi/ml Tran^35 S-label (>1,000 Ci/mmol; ICN) for 15 or 30 min. In some cases, fresh fetal calf serum (10%) was present during the labeling period. Monolayers were rinsed twice with ice-cold Dulbecco's modified Eagle's medium (DMEM) with methionine prior to lysis in 200 μl of A8 buffer (9.5M urea, 2% (w/v) Nonidet P-40, 2% (w/v) ampholines (LKB, 1.6% pH range 5-8, 04. % pH range 3.5-10), 5% (w/v) 2-mercaptoethanol). Incorporation of label into proteins was determined by trichloroacetic acid precipitation. […] The calcium ionophore A23187 (Calbiochem) was used at a concentration of 5 μM from a 2.5 mM stock in ethanol. Cycloheximide (Sigma) was used at a concentration of 25 μM from a 100 X stock in water. This level inhibited protein synthesis by >97% within 15 min. […]
# [10] = system: griPGHS mRNA (4.8-kb mRNA), human monocytes; assay type: cell-based; settings: for griPGHS mRNA increase relative to control: IL-1β 10 half-maximal units
# Description: as §1, §2, §3, §4, §5
# [11] = system: 4-kb mRNA (PGHS-2); assay: level of 4-kb PGHS-2 mRNA in C127 mouse fibroblasts; assay type: cell-based; settings: C127 cells
# Source text: Three of four potential N-glycosylation sites are conserved between the two molecules and there is particularly high similarity in the regions surrounding a putative axial heme-binding domain (amino acids 273-342) and the region around the presumed aspirin modified-serine^516 (amino acids 504-550). By far the largest difference in the two cDNAs is the presence of a 2.1 kb 3' untranslated region in the 4.1 kb cDNA. This region is rich in 5'-AUUUA-3' motifs that are associated with the decreased stability of many cytokine and protooncogene mRNAs. The presence of these motifs is consistent with the profound superinducibility of the 4.1 kb mRNA by cycloheximide, which is not observed for the 2.8 kb mRNA.
# [12] = system: cystic fibrosis lung disease; settings: high-dose, cystic fibrosis patients; cited from earlier work
# [13] = system: 72-74 kDa protein doublet, BALB/c 3T3 fibroblasts; settings: cited from earlier work
compound,measurement,setting,value
CC1=C(CC(=O)O)c2cc(F)ccc2/C1=C\c1ccc([S+](C)[O-])cc1 (stereo not shown) [Sulindac],colon polyp regression,[1],colon polyp regression
CC(=O)Oc1ccccc1C(=O)O [aspirin],colon tumor growth and death,[2],decreased colon tumor growth and death
same,"levels of drug required for inhibition, PGHS-1 versus PGHS-2 cells",[3],different for the cells expressing PGHS-1 versus those expressing PGHS-2
COc1ccc2c(c1)c(CC(=O)O)c(C)n2C(=O)c1ccc(Cl)cc1 [indomethacin],premature closure of the ductus arteriosus of the fetus,[4],raises concern with premature closure of the ductus arteriosus
same,"levels of drug required for inhibition, PGHS-1 versus PGHS-2 cells",[3],different for the cells expressing PGHS-1 versus those expressing PGHS-2
C[C@@H]1C[C@H]2[C@@H]3CCC4=CC(=O)C=C[C@]4(C)[C@@]3(F)[C@@H](O)C[C@]2(C)[C@@]1(O)C(=O)CO [dexamethasone],level of 2.8-kb PGHS mRNA,"[5]; 4 hr, normalized to β-tubulin",not affected
same,change in 2.8-kb PGHS-1 mRNA level,[6],no change
CN[C@@H]1[C@@H](O)[C@@H](O[C@@H]2[C@@H](O)[C@H](O[C@H]3O[C@H]([C@@H](C)O)[C@@H](O)[C@H](O)[C@H]3N)[C@@H](N)C[C@H]2N)OC[C@]1(C)O [G418],toxicity for COS cells,[7],toxic
TNFα,regulation of PGHS-2 expression in astrocytes,[8],strongly up-regulated
same,time of peak PGHS-2 mRNA level,[8],2 h
C[C@@H]1C[C@@H]([C@H](O)CC2CC(=O)NC(=O)C2)C(=O)[C@@H](C)C1 [cycloheximide],inhibition at 25 µM,[9],> 97%
same,superinduction of 4.8-kb mRNA,"[10]; cycloheximide 25 μM, added 15 min before cytokine or hormone",superinduction of the 4.8-kb mRNA was clearly evident
same,levels of 2.8-kb mRNA relative to β-tubulin,"[5]; IL-1β, dexamethasone or cycloheximide treatment",not significantly altered
same,change in 2.8-kb PGHS-1 mRNA level,[6],no change
same,accumulation of 4-kb mRNA,[11],accumulates to significant levels
CC(C)Cc1ccc(C(C)C(=O)O)cc1 (stereo not shown) [ibuprofen],progression of lung disease,[12],slows the progression of lung disease
platelet-derived growth factor,synthesis of 72-74 kDa protein doublet,[13],transiently increased
"IL-1β: IL-1β (10 half-maximal units, Collaborative Research), a known mediator of inflammation",griPGHS mRNA increase relative to control,[10]; 4 hr,2.5 fold
same,griPGHS mRNA increase relative to control,[10]; 12 hr,14 fold
same,levels of 2.8-kb mRNA relative to β-tubulin,[5],not significantly altered
same,regulation of PGHS-2 expression in astrocytes,[8],strongly up-regulated
same,time of peak PGHS-2 mRNA level,[8],2 h
